# Experiments:
# [1] = design: method as in PMID 19910428; conditions: cited from earlier work
# [2] = target: T1, murine Mdr1a (Mus musculus, UniProt P21447); test: CETA in LLC cells transduced with murine Mdr1a; format: in vitro ADME; conditions: tariquidar 0.5 μM; Mdr1a-overexpressing LLC cells
# T1 construct: host or cells: LLC-PK1 (porcine kidney) cells
# [3] = system: cerebral Pgp; design: method as in PMID 20016890; conditions: tariquidar 15 mg/kg; rats; cited from earlier work
# [4] = target: murine Bcrp1 (Mus musculus, UniProt Q7TMS5); conditions: [^14C]PhIP 2 μM; n = 1
# Description: (§1) For the in vitro transport studies LLC-PK1 cells transduced with human MDR1 or murine Mdr1a and respective wild-type LLC cells were used. Additionally, Madin-Darby canine kidney type II (MDCK-II) cells transduced with murine Bcrp1 or human BCRP or human MRP1 and respective wild-type MDCK-II cells were used. The cell lines were a kind gift from Piet Borst and Alfred Schinkel (The Netherlands Cancer Institute, Amsterdam, the Netherlands). Culturing of the cells was performed as described earlier. MDR1- and Mdr1a-overexpressing LLC cells were regularly tested for vincristine sulfate resistance (0.64 μM) as described before. The MDCK-II cells transduced with Bcrp1 or BCRP were regularly tested for mitoxantrone resistance (20 μM).
# (§2) CETA was performed in triplicate as described previously. With a density of 0.3 × 10^6 cells/cm^2 LLC cells were seeded on transparent polyester membrane filters (Transwell-Clear®, 6-well, 24-mm diameter, 0.4-μm pore size, Corning Costar Corporation, Cambridge, MA, USA). […] Transport experiments were performed 5–7 days after the cells reached 100% confluence. […] Control CETA was performed with calcein AM (1 μM) for MRP1 [26] and [^14C]PhIP (2 μM) for Bcrp1/BCRP. The membrane integrity was determined by mannitol diffusion and transepithelial electrical resistance (TEER), with criteria for exclusion described earlier.
# [5] = target: human BCRP (Homo sapiens, UniProt Q9UNQ0); conditions: [^14C]PhIP 2 μM; n = 1
# Description: as §1, §2
# [6] = target: human MRP1 (Homo sapiens, UniProt P33527); test: CETA in MDCK cells transduced with human MRP1; conditions: calcein AM 1 μM; n = 1
# Description: as §1, §2
# T1 sequence (P21447 whole entry): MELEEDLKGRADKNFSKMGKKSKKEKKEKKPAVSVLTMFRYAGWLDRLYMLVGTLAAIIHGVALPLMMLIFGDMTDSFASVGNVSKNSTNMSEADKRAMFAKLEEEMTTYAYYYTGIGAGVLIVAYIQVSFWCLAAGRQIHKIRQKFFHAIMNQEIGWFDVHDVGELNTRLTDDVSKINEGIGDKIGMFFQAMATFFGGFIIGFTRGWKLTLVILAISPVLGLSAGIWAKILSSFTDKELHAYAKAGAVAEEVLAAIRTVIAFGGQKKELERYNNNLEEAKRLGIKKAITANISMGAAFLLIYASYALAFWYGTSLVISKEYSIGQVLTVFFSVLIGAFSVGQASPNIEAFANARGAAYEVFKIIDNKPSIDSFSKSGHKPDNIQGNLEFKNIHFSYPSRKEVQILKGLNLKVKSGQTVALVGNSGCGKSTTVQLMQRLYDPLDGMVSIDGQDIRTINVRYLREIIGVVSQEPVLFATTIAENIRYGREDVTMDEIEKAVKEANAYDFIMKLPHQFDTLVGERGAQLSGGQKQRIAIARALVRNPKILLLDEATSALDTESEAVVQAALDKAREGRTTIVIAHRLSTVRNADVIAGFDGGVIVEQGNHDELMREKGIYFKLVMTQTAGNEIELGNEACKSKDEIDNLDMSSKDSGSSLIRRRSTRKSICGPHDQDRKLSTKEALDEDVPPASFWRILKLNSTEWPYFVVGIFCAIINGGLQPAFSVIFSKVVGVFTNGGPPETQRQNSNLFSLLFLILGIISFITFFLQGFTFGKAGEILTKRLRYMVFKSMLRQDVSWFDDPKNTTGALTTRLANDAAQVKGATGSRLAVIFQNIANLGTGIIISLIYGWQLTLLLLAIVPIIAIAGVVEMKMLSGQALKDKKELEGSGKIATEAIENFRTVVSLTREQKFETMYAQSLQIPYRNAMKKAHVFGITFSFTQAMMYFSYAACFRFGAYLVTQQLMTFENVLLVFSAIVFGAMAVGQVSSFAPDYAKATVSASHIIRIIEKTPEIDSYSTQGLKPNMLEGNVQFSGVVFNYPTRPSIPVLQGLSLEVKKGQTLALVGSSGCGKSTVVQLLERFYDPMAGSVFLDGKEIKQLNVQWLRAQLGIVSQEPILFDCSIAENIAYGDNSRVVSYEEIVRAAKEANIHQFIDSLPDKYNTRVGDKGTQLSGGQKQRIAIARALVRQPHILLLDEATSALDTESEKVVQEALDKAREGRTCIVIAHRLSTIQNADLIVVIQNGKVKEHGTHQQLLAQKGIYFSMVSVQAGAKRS
# Chain of murine Bcrp1 (Q7TMS5 whole entry): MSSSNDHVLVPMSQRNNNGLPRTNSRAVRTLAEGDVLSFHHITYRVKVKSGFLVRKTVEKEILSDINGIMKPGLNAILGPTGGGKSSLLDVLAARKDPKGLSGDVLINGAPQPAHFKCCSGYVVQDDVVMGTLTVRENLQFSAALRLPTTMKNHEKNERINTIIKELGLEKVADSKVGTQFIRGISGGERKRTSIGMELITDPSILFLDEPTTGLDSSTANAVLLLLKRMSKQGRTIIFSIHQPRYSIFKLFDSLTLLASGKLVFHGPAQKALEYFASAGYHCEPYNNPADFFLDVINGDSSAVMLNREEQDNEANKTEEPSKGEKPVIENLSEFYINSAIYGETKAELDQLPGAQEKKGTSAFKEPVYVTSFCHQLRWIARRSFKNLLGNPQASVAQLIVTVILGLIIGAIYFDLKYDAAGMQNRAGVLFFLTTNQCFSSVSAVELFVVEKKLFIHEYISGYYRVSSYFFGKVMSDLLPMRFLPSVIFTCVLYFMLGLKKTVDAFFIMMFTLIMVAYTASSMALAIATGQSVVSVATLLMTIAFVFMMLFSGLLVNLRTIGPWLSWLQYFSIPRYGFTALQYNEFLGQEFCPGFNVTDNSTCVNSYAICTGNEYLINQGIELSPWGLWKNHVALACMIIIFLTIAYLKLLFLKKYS
# Chain of human BCRP (Q9UNQ0 whole entry): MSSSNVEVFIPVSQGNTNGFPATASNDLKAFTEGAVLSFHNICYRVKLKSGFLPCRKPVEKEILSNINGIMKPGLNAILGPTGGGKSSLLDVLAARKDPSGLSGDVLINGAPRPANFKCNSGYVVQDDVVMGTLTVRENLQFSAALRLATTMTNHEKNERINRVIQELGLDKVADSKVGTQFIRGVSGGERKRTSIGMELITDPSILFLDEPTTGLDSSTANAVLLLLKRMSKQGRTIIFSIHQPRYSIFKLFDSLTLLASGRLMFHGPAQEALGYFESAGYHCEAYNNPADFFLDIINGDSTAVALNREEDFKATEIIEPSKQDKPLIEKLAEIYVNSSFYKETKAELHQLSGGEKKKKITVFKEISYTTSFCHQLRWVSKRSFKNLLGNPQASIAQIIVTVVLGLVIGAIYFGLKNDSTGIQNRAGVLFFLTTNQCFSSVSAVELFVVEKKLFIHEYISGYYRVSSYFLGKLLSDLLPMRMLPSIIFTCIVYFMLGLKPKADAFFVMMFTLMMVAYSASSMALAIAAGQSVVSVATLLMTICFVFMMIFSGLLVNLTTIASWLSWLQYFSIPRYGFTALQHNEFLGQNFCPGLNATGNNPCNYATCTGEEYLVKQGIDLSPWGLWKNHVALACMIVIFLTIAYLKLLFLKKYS
# Chain of human MRP1 (P33527 whole entry): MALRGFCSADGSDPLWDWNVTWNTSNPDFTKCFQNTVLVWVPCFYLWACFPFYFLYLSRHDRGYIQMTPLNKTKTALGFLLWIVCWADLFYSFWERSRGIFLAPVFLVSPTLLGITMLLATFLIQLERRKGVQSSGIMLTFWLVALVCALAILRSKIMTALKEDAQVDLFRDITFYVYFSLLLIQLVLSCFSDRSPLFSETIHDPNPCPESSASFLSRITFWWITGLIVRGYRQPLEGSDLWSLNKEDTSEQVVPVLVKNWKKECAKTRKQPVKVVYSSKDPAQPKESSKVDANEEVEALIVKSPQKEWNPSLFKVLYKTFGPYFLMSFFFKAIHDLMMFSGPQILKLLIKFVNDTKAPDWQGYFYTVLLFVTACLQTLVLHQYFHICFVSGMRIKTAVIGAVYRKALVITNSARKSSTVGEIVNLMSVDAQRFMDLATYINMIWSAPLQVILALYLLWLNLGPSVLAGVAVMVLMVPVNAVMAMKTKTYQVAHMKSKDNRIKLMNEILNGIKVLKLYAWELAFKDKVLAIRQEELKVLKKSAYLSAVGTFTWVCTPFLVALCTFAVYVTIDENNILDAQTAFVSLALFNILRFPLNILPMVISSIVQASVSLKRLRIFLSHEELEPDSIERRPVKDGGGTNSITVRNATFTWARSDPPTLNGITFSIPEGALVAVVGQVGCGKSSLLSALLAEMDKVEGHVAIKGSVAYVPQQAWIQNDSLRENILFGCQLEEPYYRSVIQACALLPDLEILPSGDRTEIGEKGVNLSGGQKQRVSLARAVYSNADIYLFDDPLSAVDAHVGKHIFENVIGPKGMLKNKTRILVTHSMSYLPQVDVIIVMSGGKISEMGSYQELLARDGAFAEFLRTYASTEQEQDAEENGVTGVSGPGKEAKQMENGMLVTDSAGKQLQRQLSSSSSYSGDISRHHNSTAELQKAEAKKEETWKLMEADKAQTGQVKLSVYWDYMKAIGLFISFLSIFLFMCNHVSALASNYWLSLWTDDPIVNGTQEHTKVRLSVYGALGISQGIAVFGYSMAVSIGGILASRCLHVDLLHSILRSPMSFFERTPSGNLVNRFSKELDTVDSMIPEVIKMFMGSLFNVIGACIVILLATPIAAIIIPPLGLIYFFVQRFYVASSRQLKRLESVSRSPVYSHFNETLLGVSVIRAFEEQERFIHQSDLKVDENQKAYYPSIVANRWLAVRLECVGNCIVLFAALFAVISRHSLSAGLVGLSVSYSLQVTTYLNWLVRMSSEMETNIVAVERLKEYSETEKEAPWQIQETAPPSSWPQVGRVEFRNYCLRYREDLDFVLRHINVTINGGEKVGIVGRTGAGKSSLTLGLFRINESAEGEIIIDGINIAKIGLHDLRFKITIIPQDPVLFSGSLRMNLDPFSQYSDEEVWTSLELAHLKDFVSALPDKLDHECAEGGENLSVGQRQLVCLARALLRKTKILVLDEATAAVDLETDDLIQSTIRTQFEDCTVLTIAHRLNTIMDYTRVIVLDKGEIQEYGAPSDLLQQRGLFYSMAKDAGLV
molecule,measurement,setting,value
"COc1cc2c(cc1OC)CN(CCc1ccc(NC(=O)c3cc(OC)c(OC)cc3NC(=O)c3cnc4ccccc4c3)cc1)CC2 [tariquidar, Tariquidar dimesylate]",influence on (R)-[^11C]verapamil metabolism and plasma protein binding,[1],does not influence
same,inhibition of [^3H]verapamil transport,[2],almost completely inhibited
same,inhibition of cerebral Pgp,[3],complete inhibition
"Cn1c(N)nc2ncc(-c3ccccc3)cc21 [[^14C]PhIP, [^14C]2-amino-1-methyl-6-phenylimidazo[4,5-b]pyridine]",control CETA for Bcrp1 function,[4],functional
same,control CETA for BCRP function,[5],functional
calcein AM,control CETA for MRP1 function,[6],functional MRP1 was present

# Reference: PMC3775124 (Nuclear Medicine and Biology, 2013)
